Assay results from patent US20240009170A1, “INHIBITION OF GLYCOGEN SYNTHASE KINASE-3 (GSK-3)” (Brown University, priority 2020, published 2024).
Read-outs that look alike come from different tables or passages of the source.

Assays:
TALL-104 cells = assay: Cytokine profile of immune cell culture supernatant, TALL-104; format: cell-based, Human; settings: 1 μM, 48 hours
Experimental: Collection of cell culture supernatants used in cytokine measurements. Cells were plated at 3.5×10^4 cells in a 48-well plate (Thermo Fisher Scientific, Waltham, MA, USA) in complete medium and incubated at 37° C. with 5% CO2. At twenty-four hours after plating, almost all the tumor cells were adherent to the bottom of the flask and the complete medium was replaced with drug-containing medium. Subsequently, the culture supernatants were collected after forty-eight hours of incubation and were frozen at −80° C. until the measurement of cytokines was performed. The day of analysis, samples were thawed and centrifuged to remove cellular debris.
Human cytokine profiling. Human cell line culture supernatants were analyzed using an R&D systems Human Premixed Multi-Analyte Kit (R&D Systems, Inc., Minneapolis, MN, USA) and a Luminex 200 Instrument (LX200-XPON-RUO, Luminex Corporation, Austin, TX, USA) according to the manufacturer's instructions. […]
9-ING-41 increases secreted cytotoxic proteins IFN-v, Granzyme B, and TRAIL in immune cells. […] Here, the inventors determined how 9-ING-41 treatment impacts the immune cell cytokinome. […]

[1] = system: HCT-116 colorectal cancer cells; assay: Western blot analysis, HCT-116; format: cell-based, Human
Experimental: (§1) Western blot analysis. Cells were plated in a 6-well plate and incubated overnight before the spent media was replaced with drugged media. Drug treatment lasted for indicated durations. Protein was extracted using radioimmunoprecipitation (RIPA) assay buffer (Cat #R0278, Sigma-Aldrich, St. Louis, MO) containing cOmplete™ Mini, EDTA-free Protease Inhibitor Cocktail (Cat #4693159001, Roche, Basel, Switzerland). Denaturing sample buffer was added, samples were boiled at 95 degrees for 10 minutes. An equal amount of protein lysate was electrophoresed through NuPAGE™ 4 to 12%, Bis-Tris, 1.5 mm, Mini Protein Gels (Invitrogen, Waltham, MA, USA) then transferred to PVDF membranes. The PVDF membrane was blocked with 5% non-fat milk (Sigma-Aldrich, St. Louis, MO, USA) in 1× TTBS. Primary antibodies were incubated with the transferred PVDF membrane in blocking buffer at 4° C. overnight. Secondary antibodies used included goat anti-rabbit IgG (H+L) secondary antibody, HRP (Cat #31460, Invitrogen, Waltham, MA, USA) and goat anti-mouse IgG (H+L) secondary antibody, HRP (Cat #31430, Invitrogen, Waltham, MA, USA). Signal was detected using a Syngene Imaging System.
(§2) 9-ING-41 treatment decreases survival factor expression while increasing PD-L1 levels in colorectal cancer cell lines. To elucidate the mechanism behind the differential effects of 9-ING-41 on either colorectal cancer or immune cells in co-culture and cytokine profiling assays, the inventors performed Western blot analyses on tumor and immune cells treated with 9-ING-41 over a 72-hour time course.
(§3) Treating cells from colorectal cancer cell lines with 1 μM 9-ING-41 decreases Surivin, NF-κB p65, and IκBα while increasing PD-L1 levels in, 9-ING-41 treatment of immune cells increases NIK. Western blot analysis of HCT-116 and HT-29 colorectal cancer cells for expression of indicated proteins after increasing durations of 9-ING-41 treatment (0-72 hours). Western blot analysis of TALL-104 T cells for expression of indicated proteins after increasing durations of 9-ING-41 treatment (0-72 hours). Analysis of Mcl-1 expression in HCT-116 colorectal cancer cells and NK-92 natural killer cells after increasing durations of 9-ING-41 treatment.

[2] = system: HT-29 colorectal cancer cells; assay: Western blot analysis, HT-29; format: cell-based, Human
Experimental: as §1, §2
as §3, with “Analysis of Mcl-1 expression in HCT-116 colorectal cancer cells and NK-92 natural killer cells after increasing durations of 9-ING-41 treatment.” left out

pulmonary fibrosis = settings: cited from earlier work
advanced malignancies = settings: cited from earlier work

In the case of `Cn1cc(C2=C(c3coc4ccc(F)cc34)C(=O)NC2=O)c2cc3c(cc21)OCO3` [9-ING-41], the “IFN-γ, granzyme B, and TRAIL concentrations” value (TALL-104 cells) is reported as “increases”, the IKKR ([1]; 1 μM, 0-72 hours) is reported as “No changes” and the “Survivin, NF-κB-inducing kinase (NIK), NF-κB, IKBα, pIKBα, and Bcl-2” value ([1]; 1 μM, by the 72-hour timepoint) is reported as “decreases”. For the same compound, the cPARP ([1]; 1 μM, until the 48-hour timepoint) was “little to no cPARP”, the PD-L1 expression ([1]; as the treatment duration increased) was “increases” and the Mcl-1 protein expression ([1]; by the 24-hour timepoint) was “marked decreases”. The “IKKβ and Nik” value ([2]; 0-72 hours) was “did not change”, the PD-L1 ([2]; as treatment duration increased) was “increased” and the “Survivin, NF-KB, IKBα, pIKBα, and Bcl-2” value ([2]; by the 72-hour timepoint) was “decreased”. For the same compound, the “pulmonary fibrosis and pulmonary function” value (pulmonary fibrosis; models of TGF-β) was “reduced pulmonary fibrosis and improved pulmonary function”, the “pulmonary fibrosis and pulmonary function” value (pulmonary fibrosis; models of bleomycin pulmonary fibrosis) was “reduced pulmonary fibrosis and improved pulmonary function” and the clinical response (advanced malignancies; a patient with BRAF V600E metastatic melanoma, previously treated) was “complete response”. The “increased infection or opportunistic/unusual infections” value (advanced malignancies; even in patients with extensive prior cytotoxic therapy) was “no evidence of increased infection”, the “attributable Grade 3 or 4 serious adverse events” value (advanced malignancies; monotherapy and combination with standard chemotherapy, NCT03678883) was “without attributable Grade 3 or 4 serious adverse events” and the myelosuppression (advanced malignancies; patients) was “not associated with myelosuppression of any degree”. The safety profile (advanced malignancies; preliminary results from ongoing clinical trials) was “excellent safety profile devoid of myelosuppressive and immunosuppressive effects”.
